The supplement of paper PMC10307832

Legend:
Experiment in all cases: relative viability (nuclei count vs DMSO), 5 days (fraction); higher = more cells survive
[1] = compound: Cn1cncc1[C@@](N)(c1ccc(Cl)cc1)c1ccc2c(c1)c(-c1cccc(Cl)c1)cc(=O)n2C [Tipifarnib] + CC(=O)c1c(C)c2cnc(Nc3ccc(N4CCNCC4)cn3)nc2n(C2CCCC2)c1=O [Palbociclib] (partner 0.5 µM)
Procedure, shortened: (§1)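 Lung cancer cell lines were pin-tool dosed in 1536-well plates on the day after seeding, with either a lone drug or a fixed anchor-drug dose plus five library-drug doses (not always all listed) in √10 steps. Nuclei were counted on 4× images after 5 days. Relative viability is the ratio of treated-well to vehicle-well nuclei counts, with each value a median of duplicate plates.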

[2] = compound: Cn1cncc1[C@@](N)(c1ccc(Cl)cc1)c1ccc2c(c1)c(-c1cccc(Cl)c1)cc(=O)n2C [Tipifarnib] + CCNC(=O)c1noc(-c2cc(C(C)C)c(O)cc2O)c1-c1ccc(CN2CCOCC2)cc1 [Luminespib] (partner 0.01 µM)
Procedure, shortened: as §1

[3] = compound: Cn1cncc1[C@@](N)(c1ccc(Cl)cc1)c1ccc2c(c1)c(-c1cccc(Cl)c1)cc(=O)n2C [Tipifarnib] + COc1cccc2cc(-c3nc([C@H]4CC[C@H](C(=O)O)CC4)n4ncnc(N)c34)[nH]c12 [OSI-027] (partner 0.5 µM)
Procedure, shortened: as §1

[4] = compound: Cn1cncc1[C@@](N)(c1ccc(Cl)cc1)c1ccc2c(c1)c(-c1cccc(Cl)c1)cc(=O)n2C [Tipifarnib] + CS(=O)(=O)N1CCN(Cc2cc3nc(-c4cccc5[nH]ncc45)nc(N4CCOCC4)c3s2)CC1 [Pictilisib] (partner 1 µM)
Procedure, shortened: as §1

Cell Line	relative viability ([1]; first compound 0.01 µM)	relative viability ([1]; first compound 0.03162 µM)	relative viability ([1]; first compound 0.1 µM)	relative viability ([1]; first compound 0.3162 µM)	relative viability ([1]; first compound 1 µM)	relative viability ([2]; first compound 0.01 µM)	relative viability ([2]; first compound 0.03162 µM)	relative viability ([2]; first compound 0.1 µM)	relative viability ([2]; first compound 0.3162 µM)	relative viability ([2]; first compound 1 µM)	relative viability ([3]; first compound 0.01 µM)	relative viability ([3]; first compound 0.03162 µM)	relative viability ([3]; first compound 0.1 µM)	relative viability ([3]; first compound 0.3162 µM)	relative viability ([3]; first compound 1 µM)	relative viability ([4]; first compound 0.01 µM)	relative viability ([4]; first compound 0.03162 µM)	relative viability ([4]; first compound 0.1 µM)	relative viability ([4]; first compound 0.3162 µM)	relative viability ([4]; first compound 1 µM)
LCLC-97TM1	0.222	0.154	0.202	0.202	0.236	0.799	0.751	0.662	0.52	0.574	0.402	0.409	0.358	0.286	0.22	0.179	0.147	0.12	0.193	0.108
HARA	0.32	0.32	0.238	0.217	0.265	0.694	0.682	0.526	0.522	0.221	0.618	0.408	0.298	0.137	0.147	0.403	0.373	0.313	0.362	0.148
HCC-78	0.478	0.54	0.558	0.454	0.456						0.325	0.376	0.354	0.373	0.308	0.19	0.24	0.191	0.2	0.176
NCI-H1666	0.684	0.676	0.695	0.626	0.663	1	0.92	0.94	0.842	0.806	0.73	0.737	0.585	0.566	0.602	0.464	0.393	0.419	0.332	0.367
NCI-H2347	0.361	0.388	0.398	0.381	0.361	0.671	0.298	0.401	0.386	0.28	0.479	0.368	0.411	0.259	0.334	0.613	0.478	0.658	0.648	0.404
NCI-H838	0.223	0.206	0.214	0.187	0.195	0.41	0.266	0.212	0.21	0.211	0.357	0.339	0.23	0.231	0.184	0.404	0.368	0.324	0.3	0.279
NCI-H2023	0.297	0.284	0.238	0.211	0.202	0.749	0.486	0.386	0.337	0.286	0.412	0.273	0.225	0.143	0.132	0.238	0.212	0.203	0.169	0.159
201T	0.352	0.373	0.357	0.341	0.354	1.05	1.06	0.991	0.972	0.938	0.706	0.805	0.692	0.46	0.368	0.633	0.682	0.664	0.559	0.551
NCI-H1915	0.317	0.318	0.281	0.218	0.241	0.681	0.638	0.48	0.44	0.428	0.445	0.357	0.399	0.325	0.288	0.581	0.513	0.511	0.397	0.31
NCI-H2009	0.204	0.206	0.193	0.298	0.152	0.955	0.827	0.786	0.528	0.599	0.659	0.362	0.335	0.299	0.245	0.981	0.579	0.524	0.466	0.319
BEN	0.587	0.475	0.488	0.455	0.451	0.324	0.459	0.226	0.17	0.351	0.296	0.289	0.303	0.262	0.309	0.543	0.587	0.543	0.472	0.417
PC-14	0.42	0.346	0.226	0.15	0.163	0.221	0.2	0.149	0.132	0.131	0.795	0.29	0.216	0.157	0.124	0.656	0.59	0.251	0.169	0.173
SK-MES-1	0.337	0.3	0.304	0.245	0.3	0.679	0.606	0.675	0.373	0.348	0.642	0.453	0.354	0.265	0.332	0.349	0.401	0.395	0.247	0.239
NCI-H727	0.693	0.596	0.599	0.652	0.615	0.341	0.401	0.533	0.462	0.432	0.599	0.535	0.459	0.477	0.427	0.625	0.438	0.484	0.389	0.444
NCI-H1355	0.399	0.398	0.351	0.325	0.322	0.76	0.61	0.525	0.532	0.433	0.37	0.344	0.295	0.262	0.26	0.439	0.401	0.356	0.301	0.293
NCI-H1975	0.615	0.536	0.524	0.39	0.35	0.235	0.282	0.163	0.172	0.106	0.788	0.701	0.567	0.318	0.31	0.347	0.293	0.255	0.228	0.259
LK-2	0.586	0.543	0.481	0.474	0.42	0.191	0.172	0.207	0.172	0.175	0.183	0.193	0.195	0.165	0.164	0.615	0.5	0.541	0.305	0.485
NCI-H661	0.435	0.349	0.36	0.315	0.35	0.898	0.844	0.847	0.713	0.669	0.696	0.601	0.439	0.33	0.339	0.441	0.535	0.419	0.474	0.326
HCC-366	0.259	0.346	0.199	0.179	0.101						1.01	0.778	0.265	0.18	0.0734	0.145	0.133	0.0968	0.0769	0.0755

Cell Line	relative viability ([1]; first compound 0.01 µM)	relative viability ([1]; first compound 0.03162 µM)	relative viability ([1]; first compound 0.1 µM)	relative viability ([1]; first compound 0.3162 µM)	relative viability ([1]; first compound 1 µM)	relative viability ([2]; first compound 0.01 µM)	relative viability ([2]; first compound 0.03162 µM)	relative viability ([2]; first compound 0.1 µM)	relative viability ([2]; first compound 0.3162 µM)	relative viability ([2]; first compound 1 µM)	relative viability ([3]; first compound 0.01 µM)	relative viability ([3]; first compound 0.03162 µM)	relative viability ([3]; first compound 0.1 µM)	relative viability ([3]; first compound 0.3162 µM)	relative viability ([3]; first compound 1 µM)	relative viability ([4]; first compound 0.01 µM)	relative viability ([4]; first compound 0.03162 µM)	relative viability ([4]; first compound 0.1 µM)	relative viability ([4]; first compound 0.3162 µM)	relative viability ([4]; first compound 1 µM)
HOP-62	0.425	0.33	0.268	0.188	0.191	0.653	0.611	0.401	0.374	0.349	0.639	0.382	0.33	0.263	0.317	0.506	0.158	0.24	0.3	0.26
NCI-H1944	0.324	0.31	0.288	0.28	0.273	0.641	0.657	0.363	0.372	0.393	0.419	0.324	0.307	0.247	0.263	0.38	0.313	0.348	0.295	0.279
SW 1573	0.427	0.239	0.211	0.183	0.186	0.208	0.164	0.239	0.166	0.187	0.583	0.244	0.292	0.238	0.17	0.492	0.426	0.397	0.289	0.236
LU99A	0.359	0.349	0.264	0.216	0.237	0.343	0.22	0.241	0.207	0.233	0.242	0.229	0.224	0.238	0.236	0.29	0.264	0.219	0.208	0.193
NCI-H647	0.406	0.288	0.297	0.159	0.138	0.239	0.155	0.102	0.0914	0.0951	0.409	0.585	0.438	0.299	0.101	0.403	0.416	0.364	0.406	0.167
A-427	0.527	0.535	0.477	0.448	0.466	0.828	0.877	0.849	0.691	0.548	0.406	0.316	0.365	0.361	0.254	0.675	0.511	0.673	0.677	0.373
COR-L 105	0.403	0.385	0.416	0.408	0.365	0.692	0.775	0.475	0.432	0.675	0.759	0.588	0.5	0.427	0.417	0.47	0.33	0.357	0.353	0.355
NCI-H441	0.197	0.161	0.188	0.144	0.164	0.39	0.355	0.242	0.315	0.267	0.791	0.255	0.393	0.326	0.272	0.489	0.461	0.463	0.328	0.212
EBC-1																0.313	0.199	0.198	0.183	0.242
NCI-H1648	0.253	0.304	0.279	0.285	0.45						0.268	0.258	0.271	0.307	0.259					
SW 900	0.454	0.415	0.347	0.332	0.354	0.188	0.188	0.196	0.167	0.185	0.309	0.1	0.27	0.189	0.18					
NCI-H596						1.08	0.796	0.849	0.828	0.63	0.725	0.627	0.606	0.398	0.506	0.392	0.365	0.354	0.373	0.312
NCI-H1563						0.491	0.558	0.538	0.519	0.526	0.725	0.777	0.721	0.641	0.62	0.669	0.64	0.655	0.628	0.589
NCI-H1299																0.64	0.837	0.422	0.35	0.298
NCI-H522	0.9	1.2	1.07	0.898	0.923	0.831	1.33	1.18	1.08	1.27	0.66	0.709	0.725	0.584	0.615					
A549																0.53	0.44	0.387	0.256	0.22
IA-LM																0.133	0.121	0.136	0.114	0.114
Calu-6																0.891	0.641	0.555	0.442	0.386
